This assay concerns Pseudomonas aeruginosa. The assay is described as follows: Anti-biofilm activity against Pseudomonas aeruginosa PAO1 harboring wspF gene mutation assessed as reduction on c-di-GMP level by measuring GFP fluorescence at 100 uM incubated for 24 hrs […]. It is filed as functional. Also on record: scale not given: the % may be the effect or the level left.

As for `COc1ccc(NN=C2C(N)=NN=C2N)cc1`, the Activity is reported as 0%. With `N=C1NN=C(N)/C1=N/Nc1cc(F)ccc1F`, the Activity turned out to be 65%. Regarding `N=C1/C(=N\Nc2ccccc2F)C(N)=NN1c1ccc(S(N)(=O)=O)cc1`, the Activity was found to be 0%. For the compound `N=C1NN=C(N)/C1=N/Nc1ccccc1O`, the Activity is 55%. The same measure for `NC1=NNC(=O)/C1=N\Nc1ccccc1F`: 0%. The same measure for `N=C1NN=C(N)/C1=N/Nc1c(O)cccc1F`: 75%; for `N=C1NN=C(N)/C1=N/Nc1ccc(F)cc1F`: 41%; for `N=C1ON=C(N)/C1=N/Nc1c(F)cccc1F`: 0%.

For `N=C1/C(=N\Nc2ccccc2F)C(N)=NN1CCO`, the Activity is on record as 0%. The same measure for `N=C1/C(=N\Nc2ccccc2F)C(N)=NN1c1ccc(F)cc1`: 0%; for `N=C1/C(=N\Nc2ccccc2F)C(N)=NN1c1ccc(C(=O)O)cc1`: 0%.

On to `N=C1NN=C(N)C1c1ccc2ccccc2n1` (stereo unspecified), for which the Activity is listed as 0%. The same measure for `N=C1NN=C(N)/C1=N/Nc1cc(Br)cc(Br)c1`: 0%; for `CC(=O)/N=C1\NN=C(NC(C)=O)\C1=N\Nc1ccccc1F`: 0%; for `CC(=O)NC1=NN(C(C)=O)C(=N)/C1=N\Nc1ccccc1F`: 0%. The same measure for `Cc1cccc(F)c1N/N=C1\C(=N)NN=C1N`: 0%. The same measure for `NC1=NOC(=O)/C1=N\Nc1ccccc1F`: 0%; for `N=C1NN=C(N)/C1=N/Nc1cc(F)cc(F)c1`: 35%; for `N=C1NN=C(N)/C1=N/Nc1c(F)cccc1Br`: 0%. Take `N=C1ON=C(N)/C1=N/Nc1cc(F)ccc1F`: the Activity is 0%. Turning to `N=C1NN=C(N)/C1=N/Nc1ccccc1`, the Activity was determined as 71%. The same measure for `N=C1ON=C(N)/C1=N/Nc1c(O)cccc1F`: 0%. The same measure for `N=C1NN=C(N)/C1=N/Nc1ccncc1F`: 0%; for `N=C1/C(=N\Nc2ccccc2F)C(N)=NN1S(=O)(=O)c1ccc(N)cc1`: 0%; for `N=C1NN=C(N)/C1=N/Nc1cccnc1F`: 13%. The same measure for `NNc1ccccc1F`: 0%; for `N=C1/C(=N\Nc2ccccc2F)C(N)=NN1Cc1ccccc1`: 0%. Consider `N=C1NN=C(N)/C1=N/Nc1ccccc1C(F)(F)F`, for which the Activity is listed as 0%. With `N=C1NN=C(N)/C1=N/Nc1ccccc1Br`, the Activity is 0%.

As to `N=C1NN=C(N)/C1=N/Nc1c(O)cccc1O`, the Activity came out at 15%.

Regarding `N=C1NN=C(N)/C1=N/Nc1cccc(F)c1F`, the Activity is reported as 48%.

`N=C1NN=C(N)/C1=N/Nc1ccc(F)c(F)c1F`: the Activity amounted to 0%. The same measure for `N=C1/C(=N\Nc2ccccc2F)C(N)=NN1C(=O)c1ccccc1`: 0%; for `N=C1NN=C(N)/C1=N/Nc1ccccc1I`: 0%; for `N=C1NN=C(N)/C1=N/Nc1ccccc1Cl`: 0%. The same measure for `N=C1ON=C(N)/C1=N/Nc1ccccc1F`: 0%; for `N=C1NN=C(N)/C1=N/Nc1cc(Br)ccc1Br`: 0%. The same measure for `Cc1ccc(N/N=C2\C(=N)NN=C2N)c(F)c1`: 0%. Take `O=C1NNC(=O)C1=NNc1ccccc1F`: the Activity was 0%.

Regarding `N=C1NN=C(N)/C1=N/Nc1ccccc1N`, the Activity is on record as 0%. `N=C1NN=C(N)/C1=N/Nc1ccc(F)cc1`: the Activity was determined as 44%. The same measure for `N=C1ONC(=O)/C1=N\Nc1ccccc1F`: 0%; for `N=C1NN=C(N)/C1=N/Nc1cccc(O)c1`: 0%. The same measure for `N=C1/C(=N\Nc2ccccc2F)C(N)=NN1C(=O)c1ccncc1`: 40%. The same measure for `N=C1NN=C(N)/C1=N/Nc1cc(Br)ccc1F`: 0%. Turning to `N=C1NN=C(N)/C1=N/Nc1c(Br)cccc1Br`, the Activity is 0%.

`COc1ccccc1N/N=C1\C(=N)NN=C1N`: the Activity was 0%. The same measure for `N=C1NN=C(N)/C1=N/Nc1c(F)cccc1F`: 77%. For the compound `N=C1NN=C(N)/C1=N/Nc1c(F)ccc(F)c1F`, the Activity came out at 61%. Turning to `N=C1NN=C(N)/C1=N/Nc1c(F)cc(F)cc1F`, the Activity is reported as 30%. The same measure for `N=C1NN=C(N)/C1=N/Nc1ccccc1F`: 83%; for `N=C1NN=C(N)/C1=N/Nc1cccc(F)c1`: 73%; for `N=C1NN=C(N)/C1=N/Nc1cc(F)ccc1Br`: 0%.

Consider `N=C1/C(=N\Nc2ccccc2F)C(N)=NN1S(=O)(=O)c1ccccc1`, for which the Activity was found to be 0%. The same measure for `N=C1ON=C(N)/C1=N/Nc1ccccc1O`: 0%; for `O=C1NOC(=O)/C1=N\Nc1ccccc1F`: 0%.

The values above are taken from ChEMBL document CHEMBL5107953, “SAR study of 4-arylazo-3,5-diamino-1H-pyrazoles: identification of small molecules that induce dispersal of Pseudomonas aeruginosa biofilms” (2021).
